This note sets out measurements from patent publication US20070203212A1, “METHOD OF TREATING OSTEOARTHRITIS” (WARNER-LAMBERT COMPANY, priority 2002, published 2007).

“Also recorded” adds a separate entry of the source. Marks after values point to notes of the source that are not given here.

In assay [1] the test system is monosodium iodoacetate (MIA)-induced osteoarthritis. As to the kind of experiment: MIA rat model, chronic oral b.i.d. dosing: tibial plateau cartilage erosion analysis. In kind it is in vivo. The conditions noted are these: for Decreased Erosion Size (statistically significant decrease in size of area of joint erosion) / SDCES (Significant Decrease In Cartilage Erosion Severity), Ridit analysis: 28 days; for SDCES (Significant Decrease In Cartilage Erosion Severity), Ridit analysis: calcium salt. Here is the method: In a particular experiment, monosodium iodoacetate (“MIA”) (1 mg/joint) was injected through the infrapatellar ligament of the right knee of anesthetized male, Wistar rats. The contralateral control knee was injected with 50 μL of physiologic saline. The change in hind paw weight distribution, as determined by use of an incapacitance tester, between the right (arthritic) and left (contralateral control) knees was utilized as an index of functional limitation in the arthritic knee. Limitations in joint function were determined on Days 7, 14, and 28 following induction of arthritis. Following sacrifice, erosion severity was determined on the tibial plateaus from the arthritic joint. Histological analysis was also conducted on these samples.
The ridit analysis was used to determine differences in overall erosion severity. This parameter takes into account both the erosion grade (0=no erosion, I=erosion extending into the superficial or middle layers, or II=deep layer erosion), and area (small, medium and large, quantified by dividing the area of the largest erosion in each score into thirds) simultaneously.
After administering CI-1027 b.i.d. for 4 weeks, the rats were euthanized by CO2 administration. The soft tissue was removed from the right (arthritic) leg, the joint was disarticulated, and the meniscus was carefully removed to expose the surface of the tibial plateau. The tibia was removed and placed in physiologic saline until erosion analysis was performed. Tibial plateau erosions were analyzed the same day as the sacrifice as follows. Each plateau was dipped in India ink for approximately 30 seconds to help define the erosions, rinsed in saline, and blotted on a paper towel. A stereomicroscope equipped with a digital camera was used to photograph each plateau. The tibial plateaus were photographed and graded separately by two ordinary skilled persons using the following system:
Grade I=erosion extending into the superficial or middle layers;
Grade II=deep layer erosion; no cartilage, sub-chondral bone exposed.
The photographs were transferred to a computer for image analysis using a Zeiss KS 300 Image Analysis System to determine the total erosion area for each grade, expressed in square millimeters (“mm^2”). A RIDIT analysis (see above) was used to determine differences in overall erosion severity. This analysis takes into account both the erosion grade and area (small, medium and large, quantified by dividing the area of the largest erosion in each score into thirds) simultaneously.

For assay [2] the test system is unchanged. As to the kind of experiment: MIA rat model, chronic oral b.i.d. dosing: change in hind paw weight distribution (joint function limitation / joint pain). The conditions noted are these: for IJFL (Inhibition of Joint Function Limitation) (% +/− SEM): four week study; for change in hind paw weight distribution: Days 7, 14 and 28 (FIG. 3); for inhibition of change in hind paw weight distribution: 30 mg/kg PO b.i.d. In kind it is in vivo. Here is the method: It should be appreciated that in Biological Methods 1, 2, 4, and 5 below, hind paw weight bearing differentials between the paw of the limb having the control joint (in animals administered test compound vehicle only) and the paw of the limb having the contralateral test joint (in control or inducement animals administered test compound vehicle only and in treatment animals administered test compound dissolved in test compound vehicle) were determined using an incapacitance tester, model 2KG (Linton Instrumentation, Norfolk, United Kingdom). The incapacitance tester has a chamber on top with an outwardly sloping front wall that supports a rat's front limbs, and two weight sensing pads, one for each hind paw, that facilitates this determination. The hind paw weight bearing differentials were expressed in grams and calculated as follows: (the average weight in grams placed on the control limb minus the average weight in grams placed on the contralateral test limb for each of the inducement or treatment animals) minus (the average weight in grams placed on the control limb minus the average weight in grams placed on the contralateral test limb for each of the control animals). All results were statistically analyzed by comparing the average results for an induction or treatment group with the average result for its control group at the same time point using analysis of covariance (“ANCOVA”) followed by the Hoehberg's procedure and those with statistical significance had p<0.05 unless otherwise noted.
Generally, In the MIA Rat model on Day 0, the hind-paw weight differential between the right arthritic joint and the left healthy joint of male Wistar rats (150 g) are determined with an incapacitance tester, model 2KG (Linton Instrumentation, Norfolk, United Kingdom). The incapacitance tester has a chamber on top with an outwardly sloping front wall that supports a rat's front limbs, and two weight sensing pads, one for each hind paw, that facilitates this determination. Then the rats are anesthetized with isofluorine, and the right, hind leg knee joint is injected with 1.0 mg of mono-iodoacetate (“MIA”) through the infrapatellar ligament. Injection of MIA into the joint results in the inhibition of glycolysis and eventual death of surrounding chondrocytes. The rats are further administered either an active compound useful in the invention method, or a pharmaceutically acceptable salt thereof, or vehicle (in the instant case, water) daily for 14 days or 28 days. The substituted dialkyl ether, substituted aryl-alkyl ether, substituted dialkyl thioether, substituted dialkyl ketone, or substituted-alkyl compound useful in the invention method, or a pharmaceutically acceptable salt thereof, is typically administered at a dose of 30 mg of substituted dialkyl ether, substituted aryl-alkyl ether, substituted dialkyl thioether, substituted dialkyl ketone, or substituted-alkyl compound useful in the invention method, or a pharmaceutically acceptable salt thereof, per kilogram of rat per day (30 mg/kg/day), but may be administered at other doses such as, for example, mg/kg/day, 60 mg/kg/day, 90-mg/kg/day, or 100 mg/kg/day according to the requirements of the compound being studied. It is well within the level of ordinary skill in the pharmaceutical arts to determine a proper dosage of an active compound useful in the invention method, or a pharmaceutically acceptable salt thereof, in this model. Administration of the substituted dialkyl ether, substituted aryl-alkyl ether, substituted dialkyl thioether, substituted dialkyl ketone, or substituted-alkyl compound useful in the invention method, or a pharmaceutically acceptable salt thereof, in this model is optionally by oral administration or intravenous administration via an osmotic pump. After 7 and 14 days for a two week study, or 7, 14, and 28 days for a four week study, the hind-paw weight distribution is again determined. […]

Where [3] appears, read: 30 mg/kg PO BID, dose-response experiment.

Regarding `CC(C)(CCCCOCCCCC(C)(C)C(=O)[O-])C(=O)[O-].[Ca+2]` [CI-1027, 6-(5-carboxy-5-methyl-hexyloxy)-2,2-dimethyl-hexanoic acid, calcium salt], the “Decreased Erosion Size (statistically significant decrease in size of area of joint erosion)” value in assay [1] (3 mg/kg PO BID) is reported as “No”; in assay [1] (10 mg/kg PO BID), “Yes^c”; in assay [1] (setting [3]), “No”; in assay [1] (30 mg/kg PO BID, single-dose-level experiment), “No”. For the same compound, the “SDCES (Significant Decrease In Cartilage Erosion Severity), Ridit analysis” value was “statistically significant inhibitory effect; also recorded: Yes^f” in assay [1] (3 mg/kg PO BID); “significantly decrease cartilage erosion severity; also recorded: statistically significant inhibitory effect; also recorded: Yes^e” in assay [1] (10 mg/kg PO BID); “significantly decrease cartilage erosion severity; also recorded: significantly decreased the degree of structural damage to the cartilage; also recorded: statistically significant inhibitory effect; also recorded: Yes^d” in assay [1] (setting [3]); “no statistically significant effect and No^g” in assay [1] (30 mg/kg PO BID, single-dose-level experiment (p = 0.100)). For the same compound, the “decrease in total erosion area (regardless of grade)” value is on record as 62.4% in assay [1] (10 mg/kg PO b.i.d. 28 days, dose-response experiment (FIG. 5), statistically significant) and 43% in assay [1] (30 mg/kg PO b.i.d. 28 days, first experiment, not statistically significant (p=0.179)). Besides, the “treated rats with no erosions” value in assay [1] (30 mg/kg PO b.i.d. 28 days, first experiment, N=12) is recorded as 5 of the 12. For the same compound, the “IJFL (Inhibition of Joint Function Limitation) (% +/− SEM)” value is 3 +/− 156% in assay [2] (3 mg/kg PO BID); 36 +/− 9% in assay [2] (10 mg/kg PO BID); 63 +/− 8^a % in assay [2] (setting [3]); 60 +/− 8^a % in assay [2] (30 mg/kg PO BID, single-dose-level experiment (last table row)). The “change in hind paw weight distribution” value in assay [2] (3 mg/kg PO b.i.d.) and in assay [2] (10 mg/kg PO b.i.d.) was “no statistically significant changes” in each case. Further, the “inhibition of change in hind paw weight distribution” value in assay [2] (Day 7, dose-response experiment (FIG. 3), not significant) was 38±14%; in assay [2] (Day 7, first experiment (FIG. 2)), 47±8%; in assay [2] (Day 14, dose-response experiment (FIG. 3)) it was 50±10%; in assay [2] (Day 14, first experiment (FIG. 2)), 71±9%; in assay [2] (Day 28, dose-response experiment (FIG. 3)), 62±8%; in assay [2] (Day 28, first experiment (FIG. 2)) it was 60±8%.
